Data taken from article PMC10542788, “Discovery of a cystathionine γ-lyase (CSE) selective inhibitor targeting active-site pyridoxal 5′-phosphate (PLP) via Schiff base formation” (Scientific Reports, 2023).

Tests used:
rat CSE (rCSE) = target: T1, rat CSE (rCSE) (Rattus norvegicus, UniProt P18757); test: rCSE inhibition, H2S detection by fluorescence of HSip-1; format: biochemical
T1 construct: His-tag (C); made in house; host or cells: E. coli BL21
Method: The developed assay system employs a plate reader to detect H2S production by CSE as a fluorescence signal in a solution containing 30 μg/mL rat CSE (rCSE), 1 μM HSip-1, 100 μM pyridoxal-5′-phosphate (PLP) and 1.5 mM cysteine (a substrate) in a 384-well plate format (Fig. 1b). A large amount of rCSE was expressed in E. coli and purified on a Ni Sepharose 6 Fast Flow module. We then performed screening of a chemical library consisting of 161,600 compounds (from the Drug Discovery Initiative, the University of Tokyo) for CSE inhibitors (Fig. 1c). […] Then, a confirmation test for repeatability (n = 4) of the 160 compounds selected in the 1st screening was performed to exclude false-positives. In this step, we also excluded cysteine-reactive compounds by changing the addition order of the rCSE and cysteine (substrate) solutions. In other words, in the 1st screening, the enzyme solution was firstly added to each library compound, while in the confirmation test for repeatability of the hit compounds in the 1st screening, we firstly added the cysteine solution to each compound. This enabled us to identify and exclude cysteine-reactive compounds, based on their reaction with the added cysteine. These procedures left 80 compounds showing both more than 40% inhibition at 10 µM and similar % inhibition of rCSE irrespective of the addition order of the rCSE and cysteine solutions. In the 2nd screening, we examined the reactivity of these 80 compounds with H2S using an H2S donor[17] to exclude H2S-reactive compounds. […] In this assay, we selected 13 compounds which were non-reactive to H2S, but one was relatively unstable and two of them were the same compound, so that 11 compounds were finally selected. These compounds included some hydrazine and hydrazide derivatives, so we performed titration assay of the selected 11 compounds together with 9 commercially available hydrazine and hydrazide compounds (Supplementary Fig. S3) and calculated the half-maximal (50%) inhibitory concentration (IC50) of each compound.
The fluorescence intensity of HSip-1 was measured (λex = 490 nm, λem = 510 nm) with a microplate reader (EnVision, Perkin Elmer).
10 µL of 1.5 mM cysteine solution in 30 mM HEPES (pH 7.4) was added to 10 µL of solution containing 30 µg/mL rCSE, 100 µM PLP, 1 µM HSip-1, 0.005% tween 20 and the test compound (0.5% DMSO as a cosolvent). The mixture was incubated at 25 °C for 3 h and the fluorescence intensity of HSip-1 was measured with a microplate reader.

rCSE = rCSE (Rattus norvegicus, UniProt P18757); test: Live-cell fluorescence imaging of sulfane sulfur with SSP4 in rCSE-expressing COS-7 cells; format: cell-based; conditions: COS-7 cells expressing rCSE, 1000 µM
Method: Finally, we evaluated the inhibitory activity of 1 towards rCSE in cells. […] So, we prepared COS-7 cells expressing rCSE, treated them with 1 at various concentrations (0, 100, 300 and 1000 µM), and performed fluorescence imaging of sulfane sulfur with SSP4. […] Thus, this inhibitor is available for live-cell experiments.
COS-7 cells were maintained in Dulbecco’s modified Eagle’s medium (DMEM) containing 10% fetal calf serum (FBS) and 1% penicillin streptomycin in a humidified atmosphere at 37 °C. The cells were seeded in 6 cm dishes at a density of 5 × 10^5 cells per dish. Transient transfection was performed with Lipofectamine 3000 (Thermo Fisher Scientific). Briefly, 2.5 µg plasmid, 5 µL P3000 reagent, and 7.5 µL Lipofectamine 3000 reagent were mixed in Opti-MEM, and the mixture was added to the cells. After incubation for 24 h, transfected COS-7 cells were re-seeded in eight-well chamber slides (µ-Slide 8 well high, ibidi GmbH) at a density of 4 × 10^4 cells per well. […] Excess probe was removed and the cells were washed with HBSS, then fluorescence images were captured using a Nikon A1R + confocal laser scanning microscope with an ECLIPSE Ti-E inverted microscope and a 20 × objective lens. […] Fluorescence intensity of images was calculated by using NIS-Elements software (Nikon).

T1 sequence (P18757 whole entry): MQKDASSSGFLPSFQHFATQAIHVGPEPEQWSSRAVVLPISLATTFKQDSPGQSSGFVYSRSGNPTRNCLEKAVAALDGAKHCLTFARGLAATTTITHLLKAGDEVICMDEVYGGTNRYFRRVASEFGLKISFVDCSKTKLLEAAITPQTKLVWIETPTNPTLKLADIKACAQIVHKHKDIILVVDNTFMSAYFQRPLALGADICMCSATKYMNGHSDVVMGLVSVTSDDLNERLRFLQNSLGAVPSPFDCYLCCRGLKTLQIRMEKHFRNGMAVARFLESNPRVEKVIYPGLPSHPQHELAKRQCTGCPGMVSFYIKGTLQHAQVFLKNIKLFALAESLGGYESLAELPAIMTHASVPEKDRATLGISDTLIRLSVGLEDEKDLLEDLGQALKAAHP
Sequence of rCSE (P18757 whole entry): as above

NNC(=O)C(N)=O [Compound 1, oxamic hydrazide]
IC50 (rat CSE (rCSE); fluorescence assay with HSip-1, 1.5 mM cysteine, 100 μM PLP, mean ± S.E., read-out: IC50, inhibitory activity towards rCSE): 13 ± 1 µM
selectivity for CSE among the compounds examined (1, 2, PAG) (rat CSE (rCSE); versus CBS, 3MST, MGL and ALT): highest selectivity for CSE
SSP4 fluorescence intensity (sulfane sulfur) in cells (rCSE): almost completely suppressed
